Assay results reported in article PMC7054612, “In vitro and in vivo pharmacokinetic characterization of LMT-28 as a novel small molecular interleukin-6 inhibitor” (Asian-Australasian Journal of Animal Sciences, 2019).
Values after ≈ are worked out from the molar mass of the structure shown. Like-named read-outs stand apart in the source and are kept apart here.

Columns and labels:
[1] = Metabolic stability in rat liver microsomes; type: in vitro ADME; settings: pH 7.4
Description: (§1) Metabolic stability using rat and human liver microsomes (Corning Gentest, USA) of LMT-28 was performed according to previous reported protocol. In brief, NADPH regeneration solution (Corning Gentest, USA) was added to initiate the metabolic reaction after mixing LMT-28 (final concentrations; 1 μM) with human or rat liver microsomes (0.5 mg protein/mL) in 100 mM potassium phosphate buffer (pH 7.4). After incubation at 37°C at 0, 10, 30, and 60 min, the reaction was terminated by adding three times of ice-cold acetonitrile containing internal standard (carbamazepine 10 ng/mL). After mixing by vortex and centrifugation at 10,000 g for 5 min at 4°C, the supernatants were transferred to fresh LC vials. Samples (5 μL) were analyzed by directly injection into a liquid chromatography-tandem mass spectrometry (LC-MS/MS) system for the quantification of LMT-28.
(§2) The metabolic half-life and in vitro intrinsic clearance of LMT-28 were calculated by next equations [19].
(§3) Half-life (t1/2) (h)=-0.693/KCLint,in vitro(μL/min/mg protein)=(0.693/t1/2,microsomal)×(μL incubation/mg microsomal protein)CLint,in vivo(mL/min/kg)=(0.693/t1/2,microsomal)×(mL incubation/mg microsomal protein)×(mg microsomal protein/g liver)×(g liver/kg body weight)
(§4) where K is the elimination rate constant of LMT-28 in the microsomal metabolic reaction, half-life (t1/2) is microsomal metabolic half-life, CLint, in vitro is in vitro intrinsic clearance, and CLint, in vivo is in vivo intrinsic clearance. The liver weight relative to the body weight in the rat and human are 40 and 21 g/kg, respectively.

[2] = Equilibrium solubility in water, 24 h shake-flask method; type: physicochemical; settings: thermodynamic from solid, 25°C
Description: (§5) The shake-flask method was applied to measure the equilibrium solubility of LMT-28 [16, 17]. Excess amount of LMT-28 was added into the water and the suspension was shaken at 25°C during 24 h in a flask for equilibrium solubility. The solution, then, was filtered and the concentration of LMT-28 in the filtered solution was quantified using ultra HPLC (ThermoFisher Scientific, Waltham, MA, USA) at wavelength 254 nm. The lipophilicity of LMT-28 was measured by using GLpKa (Pion, Cambridge, MA, USA) based on dip-probe absorption spectroscopy (D-PAS) method. The resultant values were calculated by LogP software (Pion, USA) and the computational predictions for number of hydrogen bond donors, hydrogen bond acceptors, rotatable bonds and predicted polar surface area (PSA) and LogS were made using Percepta software (ACD/Labs; Toronto, Canada).

[3] = Stability during sample handling and processing for LC-MS/MS analysis in biological fluids; settings: plasma or microsomal reaction solution
Description: (§6) The concentrations of LMT-28 in plasma or microsomal reaction solution were determined by LC-MS/MS. For the sample preparation before LC-MS/MS analysis, three times (75 μL) of acetonitrile containing internal standard (carbamazepine 10 ng/mL) were added to 25 μL aliquots of the plasma samples. The samples were vortex-mixed and centrifuged at 10,000 g for 5 min at 4°C for the protein precipitation. The supernatant (90 μL) was transferred to LC vials and 5 μL was injected onto a LC-MS/MS system.
(§7) Mass spectrometric detection of LMT-28 was performed on an API 4000 Qtrap mass spectrometer (AB Sciex, Foster City, CA, USA) equipped with a positive electrospray ionization source. The chromatographic separation was performed on Hypersil Gold C18 column (50 mm×2.1 mm i.d., 3 μm particle size; ThermoFisher Scientific, USA) with a flow rate of 0.3 mL/min. The positive multiple reaction monitoring (MRM) mode were based on the most abundant product ions at m/z 312 → 165 for LMT-28, and m/z 237 → 194 for internal standard. Other parameters were the nebulizing (GS1), 50 psi; heating (GS2), 50 psi; collision energy, 23 eV for LMT-28 and 15 eV for internal standard, respectively. Analyst software version 1.4.2 (AB Sciex, USA) was used for the analysis of LMT-28 concentrations.

[4] = In vivo pharmacokinetic study in male BALB/c mice; settings: for AUC(0-t): n = 4, read-out: AUC8h; for half-life: n = 4, read-out: t1/2 (terminal elimination half-life) (converted)
Description: To evaluate in vivo pharmacokinetics in mice, LMT-28 was dissolved in phosphate-buffered saline (pH 7.4) containing 5% (w/v) carboxymethyl cellulose (MilliporeSigma, USA) and administered orally by using oral needle and intravenously in the mouse tail vein at the dose of 5 mg/kg to male BALB/c mice (22 to 25 g) after overnight fasting. Blood samples (50 μL) were collected at 0.5, 1, 2, 4, 6, and 8 h after oral administration of LMT-28. After taking the blood samples from mice, the samples were centrifuged to obtain plasma samples at 4°C and 10,000 g and obtained plasma samples were stored at −20°C. These plasma samples (25 μL) were used for the quantification of LMT-28 concentration in mice.
as §6, §7
The plasma concentrations versus time profiles of LMT-28 in mice were analyzed by a non-compartmental model using WinNonlin software ver 5.3 (Pharsight, Mountain View, CA, USA). The pharmacokinetic parameters such as area under the plasma concentration-time curve (AUC), peak plasma concentration (Cmax) and the time to reach a peak concentration (Tmax), terminal elimination half-life (t1/2), mean residence time (MRT) after oral administration were obtained from each mouse’s plasma concentration-time plots for LMT-28. All data were expressed as the mean±standard deviation. A value of p<0.05 by student t-test or analysis of variance analysis was considered to be statistically significant.

[5] = Plasma protein binding assay; type: in vitro ADME
[6] = MDCK cell permeability assay; type: in vitro ADME, canine; settings: dog, MDCK cell monolayers
Description: In order to determine cell permeability of LMT-28, Madin-Darby canine kidney (MDCK) cells were cultured and seeded at a density of 6×10^4cells/cm^2 in 12-well Transwell plates. After checking cell monolayer integrity, the transepithelial electrical resistance (TEER) values (>500 ohms) were measured using an EVOM epithelial voltohmmeter (World Precision Instruments, Sarasota, FL, USA). After pre-incubation for 30 min at 37°C, LMT-28 (final concentrations of 2, 10, and 50 μM) was added to the donor wells in transport assay system. Sample aliquots (100 μL) were collected every 30 min for 120 min, and the same volume of fresh buffer added. The aliquots were stored at −20°C until quantitative analysis of LMT-28 concentrations by LC–MS/MS system. The apparent permeability coefficient (Papp, cm/s) was calculated as following equation: […]
where dQ/dt is the permeation rate across cell monolayer, A is the surface area of the monolayer (0.33 cm^2), and C0 is the initial donor concentration.

[7] = Lipophilicity (LogP) by GLpKa, D-PAS method; type: physicochemical
Description: as §5

[8] = tested on: IL-6-induced STAT3 activation; assay: Western blot analysis for inhibitory effect on IL-6-induced signaling (p-STAT3) in HepG2 cells; type: cell-based; settings: HepG2 cells pre-treated with LMT-28 (1, 3, 10, 30, 100 μM) for 1 h, then IL-6 10 ng/mL for 10 min; Western blotting
Description: HepG2 cells were seeded in MEM media (Welgene, Gyeongsan, Korea) with 10% (v/v) feta bovine serum, streptomycin (100 U/mL), and penicillin (100 U/mL; Life Technologies, Carlsbad, CA, USA). After seeding, cells were starved overnight, treated with LMT-28 for 1 h, and stimulated with IL-6 (10 ng/mL; R&D Systems, Minneapolis, MN, USA) for 10 min. Cells were treated with cell lysis buffer (Promega, Madison, WI, USA) for 30 min on ice. Cell lysates were separated on an 8% sodium dodecyl sulfate-polyacrylamide gel electrophoresis gel, then transferred to nitrocellulose membranes (Schleicher & Schuell, Dassel, Germany). The membranes were blocked overnight in Tris-buffered solution (50 mM Tris-HCl [pH 7.4], 150 mM NaCl, 0.1% Tween 20) containing 5% nonfat dry milk at 4°C and then incubated for 1 h with the appropriate primary Abs against p-STAT3 (MilliporeSigma, Burlington, MA, USA) or α-tubulin in Tris-buffered solution (TBST; 50 mM Tris-HCl [pH 7.4], 150 mM NaCl, 0.1% Tween 20) containing 5% nonfat dry milk at room temperature. The membranes were washed (10 min, five times) and incubated for 1 h with horseradish peroxidase-conjugated secondary Abs diluted to 1:6,000. After 10 washes, the membranes were incubated with enhanced chemiluminescence reagents (MilliporeSigma, USA) and chemiluminescent signals were visualized using X-ray film.

[9] = Metabolic stability in human liver microsomes; type: in vitro ADME; settings: pH 7.4
Description: as §1, §2, §3, §4

[10] = mouse, plasma, intravenous (i.v) 5 mg/kg, n = 4
[11] = mouse, plasma, intravenous (i.v) 5 mg/kg
[12] = mouse, plasma, oral (p.o.) 5 mg/kg, n = 4
[13] = mouse, plasma, oral (p.o.) 5 mg/kg

Structure (SMILES): C=C(CCCCC)[C@@H](O)[C@H](C)C(=O)N1C(=O)OC[C@@H]1C(C)C [LMT-28]
- half-life at 1 μM ([1]; rat liver microsomes 0.5 mg protein/mL, 1 μM, NADPH, 37°C, read-out: Liver microsomal stability half-life (t1/2, rat)): 0.255 ± 0.0233 h
- microsomal CLint at 1 μM ([1]; rat liver microsomes, calculated from rat microsomal half-life, read-out: In vitro intrinsic clearance CLint, in vitro (Rat)): 91 ± 8.4 µL/min/mg
- CLint scaled at 1 μM ([1]; rat liver microsomes, scaled from rat microsomal half-life, liver weight 40 g/kg, read-out: In vivo intrinsic clearance CLint, in vivo (Rat)): 164 ± 15 mL/min/kg
- solubility at 24 h [2]: 390 ± 120 µg/mL (≈ 1250 µM)
- Stability under sample handling and processing [3]: stable under various conditions of sample handling and processing
- bioavailability ([4]; male, BALB/c, mouse, plasma, oral, 5 mg/kg, oral vs intravenous, 5 mg/kg, read-out: F (bioavailability)): ~38.2%
- AUC(0-inf) [4, 10]: 677 ± 264 ng·h/mL
- MRT [4, 10]: 1.58 ± 0.32 h
- clearance [4, 10]: 144 mL/min/kg
- AUC(0-t) [4, 11]: 661 ± 253 ng·h/mL
- Vd ([4]; mouse, plasma, intravenous (i.v) 5 mg/kg, n = 4, read-out: Vss): 12.9 ± 4.66 L/kg
- half-life [4, 11]: 1.37 ± 0.29 h
- AUC(0-inf) [4, 12]: 302 ± 209 ng·h/mL
- Cmax [4, 12]: 137 ± 100 ng/mL
- MRT [4, 12]: 1.9 ± 0.55 h
- Tmax [4, 12]: 0.8 ± 0.67 h
- AUC(0-t) [4, 13]: 292 ± 202 ng·h/mL
- half-life [4, 13]: 1.13 ± 0.27 h
- Share of total AUC (AUC∞) covered by AUC8h ([4]; oral 5 mg/kg): approximately 96.7%
- Plasma protein to which the drug is bound ([5]; at 2 μM): mostly bound to serum albumin
- fraction unbound at 2 μM ([5]; plasma, read-out: Plasma protein binding (bound drug %) (converted)): 0.076
- Papp at 120 min, 10 μM [6]: 9.7 ± 1.8 ×10⁻⁶ cm/s
- logP [7]: 3.65 ± 0.22
- Inhibition of IL-6-induced p-STAT3 expression [8]: inhibit the IL-6-induced p-STAT3 expression in a dose-dependent manner
- microsomal CLint at 1 μM ([9]; human liver microsomes, calculated from human microsomal half-life, read-out: In vitro intrinsic clearance CLint, in vitro (Human)): 64 ± 8.1 µL/min/mg
- CLint scaled at 1 μM ([9]; human liver microsomes, scaled from human microsomal half-life, liver weight 21 g/kg, read-out: In vivo intrinsic clearance CLint, in vivo (Human)): 60 ± 7.7 mL/min/kg
- half-life at 1 μM ([9]; human liver microsomes 0.5 mg protein/mL, 1 μM, NADPH, 37°C, read-out: Liver microsomal stability half-life (t1/2, human)): 0.365 ± 0.0467 h
